The values below come from patent EP4644391A1, “NOVEL PHENYLQUINOLONE COMPOUND HAVING ANTIBACTERIAL AND ANTICANCER FUNCTIONS, AND PREPARATION THEREOF” (Alphamol Science Ltd (Shanghai), priority 2022, dated 2024).

Converted amounts (≈) assume the structure as drawn. Read-outs that look alike come from different tables or passages of the source.

Format in all cases: cell-based
For one test, the system named is A. baumannii ATCC 17978. Put plainly: In vitro antibacterial activity assay (MIC, broth dilution). The note with it: Acinetobacter baumannii, ATCC17978; Table 2; 37°C, 16 hours; read-out: G- bacteria MIC A. baumannii ATCC 17978. The text has this: (§1) The method used to indicate the activity of the compounds in this example is to record the minimum inhibitory concentration (MIC) of the compounds against bacteria. The specific experimental method is as follows: • 1. The bacterial liquid cultured from a single colony was taken, and diluted into autoclaved CAMHB broth in a ratio of 1:1000, and mixed well. • 2. The prepared drug solution was filtered through a sterile 0.22µm syringe filter and placed in a sterile EP tube for later use. • 3. A 96-well plate was taken, and 20µL of drug solution (400µg/mL) was added to each well in the first column of the 96-well plate. Then, 180µL of diluted bacterial liquid was added and mixed well (Perform 3 replicate rows for each drug). The same process was performed for the hydrochloride drug. • 4. 100 µL of diluted bacterial liquid was added to each well in the remaining 11 columns of the 96-well plate. Drugs are the same as above. • 5. Serial dilution: 100µL of liquid was taken from the first column to the second column, mixed well, then 100µL of liquid was taken from the second column to the third column, mixed well, and so on, sequentially diluting down to the last column (column 12). After mixing column 12 well, 100µL of liquid thereof was discarded. The drug concentration in each well was decreased by two-fold serially (the concentration in the first well is 40µg/mL). • 6. Blank CAMHB broth without added bacteria liquid was added to 3 blank wells in the 96-well plate, as negative control. • 7. The diluted bacterial liquid was added to 3 blank wells in the 96-well plate, as positive control. • 8. Incubated at 37°C for 16 hours. • 9. Results reading: the minimum inhibitory concentration is the minimum drug concentration at which no bacterial growth is visible to the naked eye and without turbidity.
For orientation: Broth dilution looks for growth in wells or tubes with falling amounts of substance.

Another test deals with P.aeruginosa ATCC 27853. The description is as above. The note with it: Pseudomonas aeruginosa, ATCC27853; Table 2; 37°C, 16 hours; read-out: G- bacteria MIC P.aeruginosa ATCC 27853.
From the text: as §1

Another test relates to E. coli ATCC 25922. The test is described as above. Particulars: Escherichia coli, ATCC25922.
From the text: as §1

A further test deals with E. feacium ATCC 700221. The test is described as above. The note with it: Table 1; 37°C, 16 hours; read-out: G+ bacteria MIC E. feacium ATCC 700221.
From the text: as §1

For a further test, the system named is S. aureus ATCC 43300. Described as above. The note with it: Staphylococcus aureus, ATCC43300.
From the text: as §1

In another test the test system is Hela. Briefly: In vitro anticancer activity test (MTT cell proliferation assay). Particulars: Homo sapiens, average proliferation inhibition rate at the dosage of 40 µM. The method, then: The anticancer activity of the compounds was tested using an in vitro cancer cell tests. The specific test method is as follows: • 1. Cell recovery and culture method: the cryovial was taken out from the liquid nitrogen container firstly, soaked directly in 37°C warm water, and shaked from time to time to let it thaw as soon as possible. Then, the cryovial was transferred to a clean bench, and the lid was open. The cell suspension was taken into a centrifuge tube using a rubber-tipped dropper and more than 10 times the culture medium was added, mixed well, and centrifuged at 50g for 5 minutes. Then, the supernatant was discarded, complete culture medium containing 10% fetal bovine serum was added to resuspend the cells, the cells was counted, the cell density was adjusted, and then inoculated into a culture bottle. The culture bottle was placed in a cell culture incubator at 5% CO2 and 37°C. The complete culture medium was replaced once the next day and the culture was continued. • 2. Cell passaging method: adherent cells in the logarithmic growth phase were placed in a clean bench, the original culture medium was discarded, and washed three times with 1×PBS. An appropriate amount of 0.25% trypsin digestion solution was added to moisten the cells, and then the trypsin solution was aspirated. The cells were placed in a cell culture incubator at 5% CO2 and 37°C for digestion for a suitable time, and observed under a microscope. When 90% of the cells become round, the cells were moved immediately to the clean bench and complete culture medium was added to terminate digestion. Then, the cells were dislodged by pipetting up and down with a rubber-tipped dropper to single cells. The cells were counted, and the cell density was adjusted. The cells were inoculated into a suitable culture bottle or dish, added enough complete culture medium, and placed in a cell culture incubator at 5% CO2 and 37°C for static culture. For suspension cells in the logarithmic phase, the original culture medium was directly centrifuged at 50g for 5 minutes, the supernatant was discarded, and the cells were washed once with PBS and centrifuged. After discarding the supernatant, the complete culture medium was added and the cells were dispersed using a rubber-tipped dropper. The cells are counted, and the cell density was adjusted. The cells were inoculated into appropriate culture bottles or culture dishes, and sufficient complete culture medium was added, and the cells were cultured in a cell culture incubator at 5% CO2 and 37°C. • 3. Cell proliferation assay: cells in good state in logarithmic phase were taken and appropriate amount of the cells was inoculated into 96-well plates according to the cell passage treatment method, with each well containing 180 µL complete medium. After the cells growth was recovered and the number of cells in each well is 5000±500, a drug was added for treatment. After drug treatment during the experimental time, MTT solution with a final concentration of 0.5 mg/mL was added to each well, and placed in a cell culture incubator at 5% CO2 and 37°C to allow a fully reaction of MTT with cells. After 4 hours, the solution in the 96-well plate was discarded, 100 µL of DMSO was added, and shaked to dissolve the formazan precipitated at the bottom of the plate, and the absorbance value of samples was detected at a wavelength of 570 nm using a microplate reader. Calculation method of cell viability rate: Viability rate = A sample group÷A control group × 100% [formula] • 4. Cell photography step: cells in good state in logarithmic phase were taken and an appropriate amount of cells was inoculated into 96-well plates according to the cell passage treatment method, with each well containing 180 µL complete medium. After the cells growth was recovered and the number of cells in each well is 5000 ± 500, a drug was added for treatment. […]

Test [1] deals with Staphylococcus aureus ATCC43300. Put plainly: Resistance test of bacteria against compounds (serial passage, 21 days). The note with it: Staphylococcus aureus, ATCC43300, 504 h, read-out: MIC at the end of the experiment. The method, then:
This example provides a resistance test of bacteria against compounds, and the specific experimental method is as follows. • 1. […] It was ensured that among the 6 final concentrations of the drug diluted into the wells, some were higher than the original MIC of the bacteria and some were lower than the original MIC of the bacteria. • 2. Preparation of bacterial liquid: 10 mL of culture medium was taken and added to a sterilized plate using a pipette, then 100 µL of the above-mentioned passaged bacterial liquid was added, and mixed well for later use. • 3. The above-mentioned diluted bacterial liquid was taken and added to a 96-well plate using a pipette, 180 µL per well, 3 wells per group, 6 groups in total. 20 µL of drug solution was added to each well (note: it is necessary to replace the pipette tip each time the drug is added), so that the final drug concentrations were 2 µg/mL, 1 µg/mL, 0.8 µg/mL, 0.4 µg/mL, 0.2 µg/mL, 0.1 µg/mL, respectively. The well with 200 µL of diluted bacterial liquid was used as the positive control well, and the well with 200 µL of culture medium was used as the negative control well.
The test object was Staphylococcus aureus (S. aureus). The specific results are shown in FIG1.

The mark [2] stands for this setting: Table 2, 37°C, 16 hours, read-out: G- bacteria MIC E. coli ATCC 25922.
[3] abbreviates: Table 1, 37°C, 16 hours, read-out: G+ bacteria MIC S. aureus ATCC 43300.

Turning to `NS(=O)(=O)c1ccc(-c2c(F)cc3c(=O)c(C(=O)O)cn(C4CC4)c3c2Cl)cc1[N+](=O)[O-]` [Example 4, 8-chloro-1-cyclopropyl-6-fluoro-7-(3-nitro-4-sulfamoyphenyl)-4-oxo-1,4-dihydroquinolin-3-carboxylic acid], the MIC is 0.1 to 1 µg/mL (≈ 0.208 to 2.08 µM) in the test on A. baumannii ATCC 17978; 0.1 to 1 µg/mL (≈ 0.208 to 2.08 µM) in the test with P.aeruginosa ATCC 27853; ≤ 0.1 µg/mL in the test with E. coli ATCC 25922 (setting [2]); 1 to 8 µg/mL (≈ 2.08 to 16.6 µM) with E. feacium ATCC 700221; ≤ 0.1 µg/mL in the test with S. aureus ATCC 43300 (setting [3]).
Turning to `N#Cc1cc(-c2cc3c(cc2F)c(=O)c(C(=O)O)cn3C2CC2)ccc1S(=O)(=O)NC1CCOCC1` [Example 5, 7-(3-cyano-4-(N-(tetrahydro-2H-pyran-4-yl)sulfamoyl)phenyl)-1-cyclopropyl-6-fluoro-4-oxo-1,4-dihydroquinolin-3-carboxylic acid], the MIC with A. baumannii ATCC 17978 was ≤ 0.1 µg/mL; in the test with P.aeruginosa ATCC 27853 it was 0.1 to 1 µg/mL (≈ 0.195 to 1.95 µM); in the test on E. coli ATCC 25922 (setting [2]) it was ≤ 0.1 µg/mL; in the test with E. feacium ATCC 700221, 1 to 8 µg/mL (≈ 1.95 to 15.6 µM); in the test with S. aureus ATCC 43300 (setting [3]), ≤ 0.1 µg/mL.
`O=C(O)c1cn(C2CC2)c2cc(-c3ccc(S(=O)(=O)NCCO)cc3)c(F)cc2c1=O` [Example 13, 1-cyclopropyl-6-fluoro-7-(4-(N-(2-hydroxyethyl)sulfamoyl)phenyl)-4-oxo-1,4-dihydroquinolin-3-carboxylic acid]: the MIC in the test with A. baumannii ATCC 17978 was 0.1 to 1 µg/mL (≈ 0.224 to 2.24 µM); in the test with P.aeruginosa ATCC 27853 it was 0.1 to 1 µg/mL (≈ 0.224 to 2.24 µM); with E. coli ATCC 25922 (setting [2]), ≤ 0.1 µg/mL; in the test with E. feacium ATCC 700221, 1 to 8 µg/mL (≈ 2.24 to 17.9 µM); in the test on S. aureus ATCC 43300 (setting [3]), ≤ 0.1 µg/mL.
Take `COc1c(-c2ccc(NC(=O)C(F)(F)F)c([N+](=O)[O-])c2)c(F)cc2c(=O)c(C(=O)O)cn(C3CC3)c12` [Example 30, 1-cyclopropyl-6-fluoro-8-methoxy-7-(3-nitro-4-(2,2,2-triifluoroacetamido)phenyl)-4-oxo-1,4-dihydroquinolin-3-carboxylic acid]: the MIC in the test on A. baumannii ATCC 17978 was 0.1 to 1 µg/mL (≈ 0.196 to 1.96 µM); in the test with P.aeruginosa ATCC 27853, 0.1 to 1 µg/mL (≈ 0.196 to 1.96 µM); with E. coli ATCC 25922 (setting [2]), ≤ 0.1 µg/mL.
Regarding `O=C(O)c1cn(C2CC2)c2cc(-c3ccc(NC(=O)C(F)(F)F)c([N+](=O)[O-])c3)c(F)cc2c1=O` [Example 35], the MIC in the test with A. baumannii ATCC 17978 was ≤ 0.1 µg/mL; in the test with P.aeruginosa ATCC 27853 it was 0.1 to 1 µg/mL (≈ 0.209 to 2.09 µM); in the test on E. coli ATCC 25922 (setting [2]) it was ≤ 0.1 µg/mL.
On to `Nc1cc(-c2c(F)cc3c(=O)c(C(=O)O)cn(C4CC4)c3c2F)ccc1C(=O)NCC(F)(F)F` [Example 43], for which the MIC in the test with A. baumannii ATCC 17978 is 0.1 to 1 µg/mL (≈ 0.208 to 2.08 µM); with P.aeruginosa ATCC 27853, 0.1 to 1 µg/mL (≈ 0.208 to 2.08 µM); in the test with E. coli ATCC 25922 (setting [2]) it was ≤ 0.1 µg/mL; in the test on E. coli ATCC 25922 (Table 3, read-out: E. coli ATCC 25922 MIC), ≤ 1 µg/mL; with S. aureus ATCC 43300 (Table 3, read-out: S. aureus ATCC 43300 MIC) it was ≤ 1 µg/mL. For the same compound, the inhibition at 40 µM in the test on Hela is ≥ 20%.
Consider `Nc1cc(-c2cc3c(cc2F)c(=O)c(C(=O)O)cn3C2CC2)ccn1` [Example 50], for which the figures for the MIC in the test with A. baumannii ATCC 17978, with P.aeruginosa ATCC 27853 and with E. coli ATCC 25922 (setting [2]) were ≤ 0.1 µg/mL, 0.1 to 1 µg/mL (≈ 0.295 to 2.95 µM) and ≤ 0.1 µg/mL, respectively.
As to `COc1c(N2C[C@@H]3CCCN[C@@H]3C2)c(F)cc2c(=O)c(C(=O)O)cn(C3CC3)c12` [Moxifloxacin, reference compound], the MIC in the test on A. baumannii ATCC 17978 was ≤ 0.1 µg/mL; in the test on P.aeruginosa ATCC 27853 it was 1 to 8 µg/mL (≈ 2.49 to 19.9 µM); with E. coli ATCC 25922 (setting [2]), ≤ 0.1 µg/mL; in the test with E. feacium ATCC 700221 it was > 8 µg/mL; with S. aureus ATCC 43300 (setting [3]), ≤ 0.1 µg/mL.
As for `CN[C@H](CC(C)C)C(=O)N[C@H]1C(=O)N[C@@H](CC(N)=O)C(=O)N[C@H]2C(=O)N[C@H]3C(=O)N[C@H](C(=O)N[C@H](C(=O)O)c4cc(O)cc(O)c4-c4cc3ccc4O)[C@H](O)c3ccc(c(Cl)c3)Oc3cc2cc(c3O[C@@H]2O[C@H](CO)[C@@H](O)[C@H](O)[C@H]2O[C@H]2C[C@](C)(N)[C@H](O)[C@H](C)O2)Oc2ccc(cc2Cl)[C@H]1O` [vancomycin], the MIC in test [1] came to 4 µg/mL (≈ 2.76 µM).

For orientation: MIC means the least concentration at which growth counts as inhibited. Usually inhibition stands for the percentage by which the read-out fell short of the control.
